The nature of the series: physchem. The essentials:
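Solubility at pH 7.4 determined by stepwise addition of 200 mM phosphate buffer in 100 μL increments to 3 mg peptide, mixing briefly each time, until no insoluble material remained, then measured by liquid chromatography.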

Starred links: 1 amine or outer side, 2 acyl side, 3 side chain; linkers in the order of their positions; H or OH if unused. Non-standard residues stand in square brackets, D forms with d. Residues, ends and D or L forms follow the SMILES beside them. Groups on a side chain read outwards from the residue. *: point of attachment. C20 diacid = O=C(O)CCCCCCCCCCCCCCCCCCC(=O)*; C18 diacid = O=C(O)CCCCCCCCCCCCCCCCC(=O)*; C17 diacid = O=C(O)CCCCCCCCCCCCCCCC(=O)*; γGlu = O=C(O)[C@H](CCC(=O)[*:2])N[*:1]; NMeY = CN[C@@H](Cc1ccc(O)cc1)C(=O)O; AEEA = NCCOCCOCC(=O)O; Aib = CC(C)(N)C(=O)O

By solubility is commonly meant the dissolved amount per volume that the medium holds. A lower solubility goes with a poorly soluble substance. For the molecule `CC[C@H](C)[C@H](NC(=O)[C@H](Cc1ccccc1)NC(=O)[C@@H](NC(=O)CNC(=O)[C@H](CCC(=O)O)NC(=O)C(C)(C)NC(=O)[C@@H](N)Cc1ccc(O)cc1)[C@@H](C)O)C(=O)N[C@@H](CO)C(=O)N[C@@H](CC(=O)O)C(=O)N[C@@H](Cc1ccc(O)cc1)C(=O)N[C@@H](CO)C(=O)N[C@H](C(=O)NC(C)(C)C(=O)N[C@@H](CC(C)C)C(=O)N[C@@H](CC(=O)O)C(=O)N[C@@H](CCCCN)C(=O)N[C@@H](C)C(=O)N[C@@H](C)C(=O)N[C@@H](CCC(N)=O)C(=O)N[C@@H](CCC(N)=O)C(=O)N[C@@H](CCCCNC(=O)COCCOCCNC(=O)COCCOCCNC(=O)CC[C@H](NC(=O)CC[C@H](NC(=O)CCCCCCCCCCCCCCCCC(=O)O)C(=O)O)C(=O)O)C(=O)N[C@@H](Cc1ccccc1)C(=O)N[C@H](C(=O)N[C@@H](CCC(=O)O)C(=O)N[C@@H](Cc1c[nH]c2ccccc12)C(=O)N[C@@H](CC(C)C)C(=O)N[C@@H](CC(C)C)C(=O)N[C@@H](C)C(=O)N[C@@H](CCC(N)=O)C(=O)N[C@@H](CCCNC(=N)N)C(=O)NCC(=O)O)C(C)C)[C@@H](C)CC` [Compound 167] (H-Y[Aib]EGTFISDYSI[Aib]LDKAAQQK([AEEA-AEEA-γGlu-γGlu-C18 diacid])FVEWLLAQRG-OH), the solubility runs as follows: (pH 7.4) at least 15 mg/mL; (pH 7.4, aqueous buffer) at least 30 mg/mL.
For the setting “pH 7.4, aqueous buffer”, `CC[C@H](C)[C@H](NC(=O)[C@H](CO)NC(=O)[C@H](Cc1ccc(O)cc1)NC(=O)[C@H](CC(=O)O)NC(=O)[C@H](CO)NC(=O)[C@@H](NC(=O)[C@H](Cc1ccccc1)NC(=O)[C@@H](NC(=O)CNC(=O)[C@H](CCC(=O)O)NC(=O)C(C)(C)NC(=O)[C@H](Cc1ccc(O)cc1)NC)[C@@H](C)O)[C@@H](C)CC)C(=O)N[C@@H](C)C(=O)N[C@@H](CC(C)C)C(=O)N[C@@H](CC(=O)O)C(=O)N[C@@H](CCCNC(=N)N)C(=O)N[C@H](C(=O)N[C@@H](CCCCNC(=O)COCCOCCNC(=O)COCCOCCNC(=O)CC[C@H](NC(=O)CC[C@H](NC(=O)CCCCCCCCCCCCCCCCC(=O)O)C(=O)O)C(=O)O)C(=O)N[C@@H](CCC(N)=O)C(=O)N[C@@H](CCC(N)=O)C(=O)N[C@@H](CC(=O)O)C(=O)N[C@@H](Cc1ccccc1)C(=O)N[C@H](C(=O)N[C@@H](CC(N)=O)C(=O)N[C@@H](Cc1c[nH]c2ccccc12)C(=O)N[C@@H](CC(C)C)C(=O)N[C@@H](CC(C)C)C(=O)N[C@@H](C)C(=O)N[C@@H](CCC(N)=O)C(=O)N[C@@H](CCCNC(=N)N)C(=O)N1CCC[C@H]1C(=O)N[C@@H](CO)C(=O)N[C@@H](CO)C(=O)NCC(=O)O)C(C)C)[C@@H](C)CC` [Compound 287] (H-[NMeY][Aib]EGTFISDYSIALDRIK([AEEA-AEEA-γGlu-γGlu-C18 diacid])QQDFVNWLLAQRPSSG-OH) had a solubility below 6 mg/mL.
Regarding `CC[C@H](C)[C@H](NC(=O)[C@H](CO)NC(=O)[C@H](Cc1ccc(O)cc1)NC(=O)[C@H](CC(=O)O)NC(=O)[C@H](CO)NC(=O)[C@@H](NC(=O)[C@H](Cc1ccccc1)NC(=O)[C@@H](NC(=O)CNC(=O)[C@H](CCC(=O)O)NC(=O)C(C)(C)NC(=O)[C@H](Cc1ccc(O)cc1)NC)[C@@H](C)O)[C@@H](C)CC)C(=O)N[C@@H](C)C(=O)N[C@@H](CC(C)C)C(=O)N[C@@H](CC(=O)O)C(=O)N[C@@H](CCCNC(=N)N)C(=O)NC(C)(C)C(=O)N[C@@H](C)C(=O)N[C@@H](CCC(N)=O)C(=O)NC(C)(C)C(=O)N[C@@H](CC(=O)O)C(=O)N[C@@H](Cc1ccccc1)C(=O)N[C@H](C(=O)N[C@@H](CC(N)=O)C(=O)N[C@@H](Cc1c[nH]c2ccccc12)C(=O)N[C@@H](CC(C)C)C(=O)N[C@@H](CC(C)C)C(=O)N[C@@H](C)C(=O)N[C@@H](CCCCNC(=O)COCCOCCNC(=O)COCCOCCNC(=O)CC[C@H](NC(=O)CC[C@H](NC(=O)CCCCCCCCCCCCCCCCC(=O)O)C(=O)O)C(=O)O)C(=O)N[C@@H](CCCNC(=N)N)C(=O)NCC(=O)O)C(C)C` [Compound 56] (H-[NMeY][Aib]EGTFISDYSIALDR[Aib]AQ[Aib]DFVNWLLAK([AEEA-AEEA-γGlu-γGlu-C18 diacid])RG-OH), the solubility is at least 15 mg/mL (pH 7.4) and at least 30 mg/mL (pH 7.4, aqueous buffer).
On to `CC[C@H](C)[C@H](NC(=O)[C@H](Cc1ccccc1)NC(=O)[C@@H](NC(=O)CNC(=O)[C@H](CCC(=O)O)NC(=O)C(C)(C)NC(=O)[C@H](Cc1ccc(O)cc1)NC)[C@@H](C)O)C(=O)N[C@@H](CO)C(=O)N[C@@H](CC(=O)O)C(=O)N[C@@H](Cc1ccc(O)cc1)C(=O)N[C@@H](CO)C(=O)N[C@H](C(=O)NC(C)(C)C(=O)N[C@@H](CC(C)C)C(=O)N[C@@H](CC(=O)O)C(=O)N[C@@H](CCCNC(=N)N)C(=O)NC(C)(C)C(=O)N[C@@H](C)C(=O)N[C@@H](CCC(N)=O)C(=O)NC(C)(C)C(=O)N[C@@H](CCCCNC(=O)COCCOCCNC(=O)COCCOCCNC(=O)CC[C@H](NC(=O)CC[C@H](NC(=O)CCCCCCCCCCCCCCCCCCC(=O)O)C(=O)O)C(=O)O)C(=O)N[C@@H](Cc1ccccc1)C(=O)N[C@H](C(=O)N[C@@H](CC(N)=O)C(=O)N[C@@H](Cc1c[nH]c2ccccc12)C(=O)N[C@@H](CC(C)C)C(=O)N[C@@H](CC(C)C)C(=O)N[C@@H](C)C(=O)N[C@@H](CCC(N)=O)C(=O)N[C@@H](CCCCN)C(=O)NCC(=O)O)C(C)C)[C@@H](C)CC` [Compound 65] (H-[NMeY][Aib]EGTFISDYSI[Aib]LDR[Aib]AQ[Aib]K([AEEA-AEEA-γGlu-γGlu-C20 diacid])FVNWLLAQKG-OH), for which the solubility is, setting by setting: (pH 7.4) at least 15 mg/mL; (pH 7.4, aqueous buffer) at least 30 mg/mL.
Turning to `CC[C@H](C)[C@H](NC(=O)[C@H](CO)NC(=O)[C@H](Cc1ccc(O)cc1)NC(=O)[C@H](CC(=O)O)NC(=O)[C@H](CO)NC(=O)[C@@H](NC(=O)[C@H](Cc1ccccc1)NC(=O)[C@@H](NC(=O)CNC(=O)[C@H](CCC(=O)O)NC(=O)C(C)(C)NC(=O)[C@H](Cc1ccc(O)cc1)NC)[C@@H](C)O)[C@@H](C)CC)C(=O)N[C@@H](C)C(=O)N[C@@H](CC(C)C)C(=O)N[C@@H](CC(=O)O)C(=O)N[C@@H](CCCNC(=N)N)C(=O)NC(C)(C)C(=O)N[C@@H](Cc1c[nH]cn1)C(=O)N[C@@H](CCC(N)=O)C(=O)NC(C)(C)C(=O)N[C@@H](CCCCNC(=O)COCCOCCNC(=O)COCCOCCNC(=O)CC[C@H](NC(=O)CC[C@H](NC(=O)CCCCCCCCCCCCCCCC(=O)O)C(=O)O)C(=O)O)C(=O)N[C@@H](Cc1ccccc1)C(=O)N[C@H](C(=O)N[C@@H](CC(N)=O)C(=O)N[C@@H](Cc1c[nH]c2ccccc12)C(=O)N[C@@H](CC(C)C)C(=O)N[C@@H](CC(C)C)C(=O)N[C@@H](C)C(=O)N[C@@H](CCC(N)=O)C(=O)N[C@@H](CCCNC(=N)N)C(N)=O)C(C)C` [Compound 257] (H-[NMeY][Aib]EGTFISDYSIALDR[Aib]HQ[Aib]K([AEEA-AEEA-γGlu-γGlu-C17 diacid])FVNWLLAQR-NH2), where the note is “pH 7.4, aqueous buffer”, the solubility is at least 7.5 mg/mL.
On to `CC[C@H](C)[C@H](NC(=O)[C@H](CCCCN)NC(=O)[C@H](CC(=O)O)NC(=O)[C@H](CC(C)C)NC(=O)[C@H](C)NC(=O)[C@@H](NC(=O)[C@H](CO)NC(=O)[C@H](Cc1ccc(O)cc1)NC(=O)[C@H](CC(=O)O)NC(=O)[C@H](CO)NC(=O)[C@@H](NC(=O)[C@H](Cc1ccccc1)NC(=O)[C@@H](NC(=O)CNC(=O)[C@H](CCC(=O)O)NC(=O)C(C)(C)NC(=O)[C@@H](N)Cc1ccc(O)cc1)[C@@H](C)O)[C@@H](C)CC)[C@@H](C)CC)C(=O)N[C@@H](C)C(=O)N[C@@H](CCC(N)=O)C(=O)N[C@@H](CCCNC(=N)N)C(=O)N[C@@H](CCCCNC(=O)COCCOCCNC(=O)COCCOCCNC(=O)CC[C@H](NC(=O)CC[C@H](NC(=O)CCCCCCCCCCCCCCCC(=O)O)C(=O)O)C(=O)O)C(=O)N[C@@H](Cc1ccccc1)C(=O)N[C@H](C(=O)N[C@@H](CCC(=O)O)C(=O)N[C@@H](Cc1c[nH]c2ccccc12)C(=O)N[C@@H](CC(C)C)C(=O)N[C@@H](CC(C)C)C(=O)N[C@@H](C)C(=O)N[C@@H](CCC(N)=O)C(=O)N[C@@H](CCCNC(=N)N)C(=O)NCC(=O)O)C(C)C` [Compound 143] (H-Y[Aib]EGTFISDYSIALDKIAQRK([AEEA-AEEA-γGlu-γGlu-C17 diacid])FVEWLLAQRG-OH), for which the solubility is at least 15 mg/mL (pH 7.4) and at least 30 mg/mL (pH 7.4, aqueous buffer).
Take `CC[C@H](C)[C@H](NC(=O)[C@H](CO)NC(=O)[C@H](Cc1ccc(O)cc1)NC(=O)[C@H](CC(=O)O)NC(=O)[C@H](CO)NC(=O)[C@@H](NC(=O)[C@H](Cc1ccccc1)NC(=O)[C@@H](NC(=O)CNC(=O)[C@H](CCC(=O)O)NC(=O)C(C)(C)NC(=O)[C@@H](N)Cc1ccc(O)cc1)[C@@H](C)O)[C@@H](C)CC)C(=O)N[C@@H](C)C(=O)N[C@@H](CC(C)C)C(=O)N[C@@H](CC(=O)O)C(=O)N[C@@H](CCCCN)C(=O)N[C@@H](C)C(=O)N[C@@H](C)C(=O)N[C@@H](CCC(N)=O)C(=O)NC(C)(C)C(=O)N[C@@H](CCCCNC(=O)COCCOCCNC(=O)COCCOCCNC(=O)CC[C@H](NC(=O)CC[C@H](NC(=O)CCCCCCCCCCCCCCCCC(=O)O)C(=O)O)C(=O)O)C(=O)N[C@@H](Cc1ccccc1)C(=O)N[C@H](C(=O)N[C@@H](CCC(=O)O)C(=O)N[C@@H](Cc1c[nH]c2ccccc12)C(=O)N[C@@H](CC(C)C)C(=O)N[C@@H](CC(C)C)C(=O)N[C@@H](C)C(=O)N[C@@H](CCC(N)=O)C(=O)N[C@@H](CCCNC(=N)N)C(=O)NCC(=O)O)C(C)C` [Compound 154] (H-Y[Aib]EGTFISDYSIALDKAAQ[Aib]K([AEEA-AEEA-γGlu-γGlu-C18 diacid])FVEWLLAQRG-OH): the solubility by setting is: (pH 7.4) at least 15 mg/mL; (pH 7.4, aqueous buffer) at least 30 mg/mL.

For the origin of these results see patent US20230143604A1, “QW DOSING OF GIP RECEPTOR AGONIST PEPTIDE COMPOUNDS AND USES THEREOF” (TAKEDA PHARMACEUTICAL COMPANY LIMITED, priority 2020, published 2023).
